Measurements taken from PubChem BioAssay (NCI).
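How tested: cells in 96-well plates exposed to compound for 48 hours at five concentrations. GI50 marks 50% less growth. TGI is the concentration that stops growth completely.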

Key:
Test in all cases: DTP human tumour cell line panel, 48 h
NCI-H23 lung = tested on: NCI-H23 lung
NCI-H460 lung = tested on: NCI-H460 lung
NCI-H522 lung = tested on: NCI-H522 lung
NCI/ADR-RES ovarian = tested on: NCI/ADR-RES ovarian
OVCAR-3 ovarian = tested on: OVCAR-3 ovarian
OVCAR-4 ovarian = tested on: OVCAR-4 ovarian
OVCAR-5 ovarian = tested on: OVCAR-5 ovarian
OVCAR-8 ovarian = tested on: OVCAR-8 ovarian
PC-3 prostate = tested on: PC-3 prostate
RPMI-8226 leukemia = tested on: RPMI-8226 leukemia
RXF 393 renal = tested on: RXF 393 renal
SF-268 CNS = tested on: SF-268 CNS
SF-295 CNS = tested on: SF-295 CNS
SF-539 CNS = tested on: SF-539 CNS
SK-MEL-2 melanoma = tested on: SK-MEL-2 melanoma
SK-MEL-28 melanoma = tested on: SK-MEL-28 melanoma
SK-MEL-5 melanoma = tested on: SK-MEL-5 melanoma
SK-OV-3 ovarian = tested on: SK-OV-3 ovarian
SN12C renal = tested on: SN12C renal
SNB-19 CNS = tested on: SNB-19 CNS
SNB-75 CNS = tested on: SNB-75 CNS
SW-620 colon = tested on: SW-620 colon
T-47D breast = tested on: T-47D breast
TK-10 renal = tested on: TK-10 renal
U251 CNS = tested on: U251 CNS
UACC-257 melanoma = tested on: UACC-257 melanoma
UACC-62 melanoma = tested on: UACC-62 melanoma
UO-31 renal = tested on: UO-31 renal

COc1cc2c(cc1OCc1ccccc1)N=CC1C[C@@H](O)CN1C2=O (stereo not given in full)
TGI (NCI-H23 lung): 25.3 µM
GI50 (NCI-H460 lung): 10.7 µM
TGI (NCI-H460 lung): > 100 µM
GI50 (NCI-H522 lung): 1.4 µM
TGI (NCI-H522 lung): 7.43 µM
GI50 (NCI/ADR-RES ovarian): 14.7 µM
TGI (NCI/ADR-RES ovarian): > 56.7 µM
GI50 (OVCAR-3 ovarian): 2.64 µM
TGI (OVCAR-3 ovarian): 18.2 µM
GI50 (OVCAR-4 ovarian): 12.4 µM
TGI (OVCAR-4 ovarian): > 73.5 µM
GI50 (OVCAR-5 ovarian): 3.37 µM
TGI (OVCAR-5 ovarian): > 25.3 µM
GI50 (OVCAR-8 ovarian): 8.35 µM
TGI (OVCAR-8 ovarian): > 74.8 µM
GI50 (PC-3 prostate): 23.1 µM
TGI (PC-3 prostate): > 100 µM
GI50 (RPMI-8226 leukemia): 2.57 µM
TGI (RPMI-8226 leukemia): > 28 µM
GI50 (RXF 393 renal): 1.7 µM
TGI (RXF 393 renal): 4.95 µM
GI50 (SF-268 CNS): 3.41 µM
TGI (SF-268 CNS): 26.7 µM
GI50 (SF-295 CNS): 4.62 µM
TGI (SF-295 CNS): > 71.5 µM
GI50 (SF-539 CNS): 2.11 µM
TGI (SF-539 CNS): 6.76 µM
GI50 (SK-MEL-2 melanoma): 3.08 µM
TGI (SK-MEL-2 melanoma): 9.19 µM
GI50 (SK-MEL-28 melanoma): 8.23 µM
TGI (SK-MEL-28 melanoma): 28.4 µM
GI50 (SK-MEL-5 melanoma): 2.53 µM
TGI (SK-MEL-5 melanoma): 5.38 µM
GI50 (SK-OV-3 ovarian): 17.5 µM
TGI (SK-OV-3 ovarian): > 71.5 µM
GI50 (SN12C renal): 5.77 µM
TGI (SN12C renal): 24.2 µM
GI50 (SNB-19 CNS): 6.52 µM
TGI (SNB-19 CNS): > 100 µM
GI50 (SNB-75 CNS): 9.08 µM
TGI (SNB-75 CNS): 47 µM
GI50 (SW-620 colon): 3.16 µM
TGI (SW-620 colon): 31.3 µM
GI50 (T-47D breast): 1.95 µM
TGI (T-47D breast): 7.09 µM
GI50 (TK-10 renal): 2.37 µM
TGI (TK-10 renal): 12.7 µM
GI50 (U251 CNS): 2.86 µM
TGI (U251 CNS): > 100 µM
GI50 (UACC-257 melanoma): 19.2 µM
TGI (UACC-257 melanoma): > 59.6 µM
GI50 (UACC-62 melanoma): 0.824 µM
TGI (UACC-62 melanoma): 17.1 µM
GI50 (UO-31 renal): 3.52 µM
TGI (UO-31 renal): 19.2 µM
